Data published in US8119630B2 (Arrow Therapeutics Limited, priority 2002, dated 2012).
Read-outs that look alike come from different tables or passages of the source.

Legend:
RSV = assay: XTT assay, RSV-infected Vero cells; assay type: cell-based, Respiratory Syncytial Virus (RSV); conditions: Vero cells infected with RSV, m.o.i.≈0.2, 6 days at 33° C.
Summary of the method: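 Vero cells infected with RSV at m.o.i.≈0.2 in presence of serially ½-log diluted compound, incubated 6 days at 33 °C. Viability read by XTT/PMS (5 h, 37 °C) at OD450; uninfected untreated cells = 100%, infected controls = 0% inhibition. IC50 from graph or regression; parallel uninfected plates for toxicity.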

Vero cells = assay: Simultaneous toxicity investigation (XTT), Vero cells; assay type: cell-based; set-up: unit not given here; conditions: for TC50 (2d): Table 2, Examples 83 to 124, 2d; for TC50 (6d): Table 2, Examples 83 to 124, 6d
Procedure: The inner 60 wells of 96 well tissue culture plates were seeded with Vero cells at 3×10^4 cells/well (1×10^4 cells/well for toxicity studies) in 100 or 150 μl of medium and incubated at 37° C. overnight or until nearing confluency. For primary screen, 25 μl compounds were added directly to 100 μl medium in single wells to duplicate plates. A third plate was prepared for simultaneous toxicity investigation.
For follow-up investigation, 70 μl of compound in duplicate wells were added directly to culture medium at 3.2× final concentration and ½ log serially diluted down columns of plate. A duplicate plate was prepared for simultaneous toxicity investigation.
Cells were infected with 25 μl RSV to give m.o.i.≈0.2. […] Some 0.25 μl/ml PMS were added to stock XTT solution, final conc. […]. Then 25 μl warmed XTT/PMS solution were added to each well and incubated for 5 hours at 37° C. Plates were shaken (DynaTech Vari-Shaker) vigorously for 10 mins and allowed to cool for 15 mins before sealing. Absorbance at 450 nm was measured and data analysed using Microsoft Excel software.

[1] = human respiratory syncytial virus, Vero, 144 h, read-out: XTT IC50 (uM), Table 2, Examples 83 to 124
[2] = Table 2, Examples 83 to 124, read-out: XTT IC50

| Molecule | IC50 (RSV; [1]) | TC50 (2d) (Vero cells) | TC50 (6d) (Vero cells) | IC50 (RSV; [2]) |
| --- | --- | --- | --- | --- |
| COc1cc(Cl)ccc1C(=O)NC1N=C(c2ccccc2)c2ccccc2NC1=O (stereo not drawn) [Example 88, 4-Chloro-2-methoxy-N-(2-oxo-5-phenyl-2,3-dihydro-1H-benzo[e][1,4]diazepin-3-yl)-benzamide] | 0.3 µM | 100 | 40 |  |
| N-[5-(3-Methoxy-phenyl)-2-oxo-5-phenyl-2,3-dihydro-1H-benzo[e][1,4]diazepin-3-yl]nitro-benzamide [Example 110] |  | >100 | >100 | 5 µM |
| CN(C)c1ccccc1C(=O)NC1N=C(c2ccccc2)c2ccccc2NC1=O (stereo not drawn) [Example 113, 2-Dimethylamino-N-(2-oxo-5-phenyl-2,3-dihydro-1H-benzo[e][1,4]diazepin-3-yl)-benzamide] | 1.5 µM | >100 | >100 |  |
| Cc1cccc(CNC(=O)NC2N=C(c3ccccc3)c3ccccc3NC2=O)c1 (stereo not drawn) [Example 86, 1-(3-Methyl-benzyl)-3-(2-oxo-5-phenyl-2,3-dihydro-1H-benzo[e][1,4]diazepin-3-yl)-urea] | 3 µM | >100 | 100 |  |
| O=C(NCc1ccccc1F)NC1N=C(c2ccccc2)c2ccccc2NC1=O (stereo not drawn) [Example 84, 1-(2-Fluoro-benzyl)-3-(2-oxo-5-phenyl-2,3-dihydro-1H-benzo[e][1,4]diazepin-3-yl)-urea] | 2 µM | >100 | >100 |  |
| COc1ccc(C(=O)NC2N=C(c3ccccc3F)c3cc(Cl)ccc3NC2=O)cc1 (stereo not drawn) [Example 83, N-[7-Chloro-5-(2-fluoro-phenyl)-2-oxo-2,3-dihydro-1H-benzo[e][1,4]diazepine-3-yl]-4-methoxy-benzamide] | 6 µM | >100 | 32 |  |
| N-[5-(3-Chloro-phenyl)-2-oxo-5-phenyl-2,3-dihydro-1H-benzo[e][1,4]diazepin-3-yl]-4-methoxy-benzamide [Example 100] |  | >100 | 100 | 4 µM |
| COc1ccccc1C(=O)NC1N=C(c2cccc(C(F)(F)F)c2)c2ccccc2NC1=O (stereo not drawn) [Example 104, 2-Methoxy-N-[2-oxo-5-(3-trifluoromethyl-phenyl)-2,3-dihydro-1H-benzo[e][1,4]diazepin-3-yl]-benzamide] | 5 µM | >100 | >100 |  |
| COc1ccccc1C(=O)NC1N=C(c2ccccc2)c2ccc(C)cc2NC1=O (stereo not drawn) [Example 111, 2-Methoxy-N-(8-methyl-2-oxo-5-phenyl-2,3-dihydro-1H-benzo[e][1,4]diazepin-3-yl)-benzamide] | 3 µM | >100 | >100 |  |
| COc1ccc(C(=O)NC2N=C(c3ccc(C(F)(F)F)cc3)c3ccccc3NC2=O)cc1 (stereo not drawn) [Example 103, 4-Methoxy-N-[2-oxo-5-(4-trifluoromethyl-phenyl)-2,3-dihydro-1H-benzo[e][1,4]diazepin-3-yl]-benzamide] | 7 µM | >100 | 30 |  |
| COc1ccccc1CCC(=O)NC1N=C(c2ccccc2)c2ccccc2NC1=O (stereo not drawn) [Example 96, 3-(2-Methoxy-phenyl)-N-(2-oxo-5-phenyl-2,3-dihydro-1H-benzo[e][1,4]diazepin-3-yl)propionamide] | 5 µM | >100 | >100 |  |
| O=C(Nc1ccc(Br)cc1C(F)(F)F)NC1N=C(c2ccccc2)c2ccccc2NC1=O (stereo not drawn) [Example 117, 1-(4-Bromo-2-trifluoromethyl-phenyl)-3-(2-oxo-5-phenyl-2,3-dihydro-1H-benzo[e][1,4]diazepin-3-yl)-urea] | 6 µM | 60 | 100 |  |
| CSc1ccccc1NC(=O)NC1N=C(c2ccccc2)c2ccccc2NC1=O (stereo not drawn) [Example 123, 1-(2-Methylsulfanyl-phenyl)-3-(2-oxo-5-phenyl-2,3-dihydro-1H-benzo[e][1,4]diazepin-3-yl)-urea] | 2 µM | >100 | 100 |  |
| COc1ccccc1C(=O)NC1N=C(c2cccc(Cl)c2)c2ccccc2NC1=O (stereo not drawn) [Example 99, N-[5-(3-Chloro-phenyl)-2-oxo-2,3-dihydro-1H-benzo[e][1,4]diazepin-3-yl]-2-methoxy-benzamide] | 1 µM | 100 | >100 |  |
| O=C(Nc1ccc(C(F)(F)F)cc1)NC1N=C(c2ccccc2)c2ccccc2NC1=O (stereo not drawn) [Example 87, 1-(2-Oxo-5-phenyl-2,3-dihydro-1H-benzo[e][1,4]diazepin-3-yl)-3-(4-trifluoromethyl-phenyl)-urea] | 4 µM | 50 | 50 |  |
| COc1ccc(C(=O)NC2N=C(c3ccccc3)c3ccccc3NC2=O)cc1[N+](=O)[O-] (stereo not drawn) [Example 89, 4-Methoxy-3-nitro-N-(2-oxo-5-phenyl-2,3-dihydro-1H-benzo[e][1,4]diazepin-3-yl)benzamide] | 0.8 µM | >100 | >100 |  |
| COc1ccc(CCC(=O)NC2N=C(c3ccccc3)c3ccccc3NC2=O)cc1 (stereo not drawn) [Example 98, 3-(4-Methoxy-phenyl)-N-(2-oxo-5-phenyl-2,3-dihydro-1H-benzo[e][1,4]diazepin-3-yl)-propionamide] | 5 µM | >100 | >100 |  |
| COc1ccc(F)cc1C(=O)NC1N=C(c2ccccc2)c2ccccc2NC1=O (stereo not drawn) [Example 92, 5-Fluoro-2-methoxy-N-(2-oxo-5-phenyl-2,3-dihydro-1H-benzo[e][1,4]diazepin-3-yl)-benzamide] | < 0.3 µM | 100 | 100 |  |
| COc1cccc(C(=O)NC2N=C(c3ccccc3)c3ccccc3NC2=O)c1[N+](=O)[O-] (stereo not drawn) [Example 90, 3-Methoxy-2-nitro-N-(2-oxo-5-phenyl-2,3-dihydro-1H-benzo[e][1,4]diazepin-3-yl)-benzamide] | 0.5 µM | 100 | 100 |  |
| COc1ccc(C(=O)NC2N=C(c3cccc(C(F)(F)F)c3)c3ccccc3NC2=O)cc1 (stereo not drawn) [Example 105] |  | >100 | >100 | 9 µM |
| Cc1cc(C)cc(NC(=O)NC2N=C(c3ccccc3)c3ccccc3NC2=O)c1 (stereo not drawn) [Example 115, 1-(3,5-Dimethyl-phenyl)-3-(2-oxo-5-phenyl-2,3-dihydro-1H-benzo[e][1,4]diazepin-3-yl)-urea] | 1.5 µM | >100 | 60 |  |
| Cc1cccc(C)c1NC(=O)NC1N=C(c2ccccc2)c2ccccc2NC1=O (stereo not drawn) [Example 120, 1-(2,6-Dimethyl-phenyl)-3-(2-oxo-5-phenyl-2,3-dihydro-1H-benzo[e][1,4]diazepin-3-yl)-urea] | 6 µM | >100 | 60 |  |
| O=C(Nc1c(Cl)cccc1Cl)NC1N=C(c2ccccc2)c2ccccc2NC1=O (stereo not drawn) [Example 124, 1-(2,6-Dichloro-phenyl)-3-(2-oxo-5-phenyl-2,3-dihydro-1H-benzo[e][1,4]diazepin-3-yl)-urea] | 5 µM | 70 | 60 |  |
| O=C(Nc1cccc(Cl)c1Cl)NC1N=C(c2ccccc2)c2ccccc2NC1=O (stereo not drawn) [Example 119, 1-(2,3-Dichloro-phenyl)-3-(2-oxo-5-phenyl-2,3-dihydro-1H-benzo[e][1,4]diazepin-3-yl)-urea] | 2 µM | >100 | 30 |  |
| COc1cccc(CCC(=O)NC2N=C(c3ccccc3)c3ccccc3NC2=O)c1 (stereo not drawn) [Example 97, 3-(3-Methoxy-phenyl)-N-(2-oxo-5-phenyl-2,3-dihydro-1H-benzo[e][1,4]diazepin-3-yl)-propionamide] | 5 µM | >100 | >100 |  |
| CS(=O)(=O)c1ccc(C(=O)NC2N=C(c3ccccc3)c3ccccc3NC2=O)c(Cl)c1 (stereo not drawn) [Example 112, 2-Chloro-4-methanesulfonyl-N-(2-oxo-5-phenyl-2,3-dihydro-1H-benzo[e][1,4]diazepin-3-yl)-benzamide] | 1.5 µM | >100 | >100 |  |
| COc1ccc(C(=O)NC2N=C(c3ccccc3)c3ccccc3NC2=O)c(OC)c1 (stereo not drawn) [Example 107, 2,4-Dimethoxy-N-(2-oxo-5-phenyl-2,3-dihydro-1H-benzo[e][1,4]diazepin-3-yl)-benzamide] | < 0.3 µM | 60 | 60 |  |
| COc1cccc(C2=NC(NC(=O)c3ccccc3OC)C(=O)Nc3ccccc32)c1 (stereo not drawn) [Example 109, 2-Methoxy-N-[5-(3-methoxy-phenyl)-2-oxo-2,3-dihydro-1H-benzo[e][1,4]diazepin-3-yl]-benzamide] | 2 µM | 50 | 100 |  |
